From ChEMBL document CHEMBL1124132, “Adenosine receptor agonists: synthesis and biological evaluation of 1-deaza analogues of adenosine derivatives” (J Med Chem, 1988)
pIC50, pKi: −log10 of the molar value.

Columns and labels:
Homo sapiens = species: Homo sapiens; experiment: Concentration that inhibits platelet aggregation induced by ADP (7 uM) by 50%; type: functional
Adenosine receptor A1 [1] = molecular target: T1, Adenosine receptor A1 (Rattus norvegicus, UniProt P25099); experiment: Inhibition of Adenylate cyclase activity in rat fat cell membrane at adenosine A1 receptor; type: cell-based
T1 sequence (P25099 whole entry): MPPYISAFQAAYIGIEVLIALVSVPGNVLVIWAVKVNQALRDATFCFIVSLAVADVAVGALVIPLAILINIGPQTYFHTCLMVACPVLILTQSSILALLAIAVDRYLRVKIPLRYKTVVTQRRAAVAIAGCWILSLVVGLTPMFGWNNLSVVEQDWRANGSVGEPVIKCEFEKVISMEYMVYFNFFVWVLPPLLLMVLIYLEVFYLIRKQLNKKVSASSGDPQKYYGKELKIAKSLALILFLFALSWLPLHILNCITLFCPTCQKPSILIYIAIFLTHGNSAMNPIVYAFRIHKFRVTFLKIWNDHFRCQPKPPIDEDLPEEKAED

[2] = molecular target: T2, Adenosine receptor A1 (Rattus norvegicus) (UniProt P25099); experiment: Maximal inhibition of adenylate cyclase activity relative to R-PIA for Adenosine A1 receptor (Inhibition by R-PIA=53+/-10%)
T2 sequence (whole entry): T1 sequence (P25099 whole entry)

Adenosine receptor A1 [3] = molecular target: T1, Adenosine receptor A1
Description: Displacement of [3H]PIA from adenosine A1 receptor of rat brain membranes

Adenosine A2 receptor [4] = molecular target: Adenosine A2 receptor (Homo sapiens, UniProt P29275+P29274)
Description: Stimulation of adenylate cyclase activity in human platelet membrane at A2 receptor

[5] = A1 selectivity as ratio of EC50 at A2 receptor to IC50 at A1 receptor
Adenosine A2 receptor [6] = molecular target: Adenosine A2 receptor (Rattus norvegicus, UniProt P29276+P30543)

SMILES | pIC50 (Homo sapiens) | pIC50 (Adenosine receptor A1 [1]) | relative max inhibition [2] | pKi (Adenosine receptor A1 [3]) | EC50 (Adenosine A2 receptor [4]) | Selectivity [5] | Ki (Adenosine A2 receptor [6])
CCNC(=O)[C@H]1O[C@@H](n2cnc3c(N)ncnc32)[C@H](O)[C@@H]1O [NECA] | 6.22 | – | – | – | – | – | –
OC[C@H]1O[C@@H](n2cnc3c(NC4CCCCC4)cc(Cl)nc32)[C@H](O)[C@@H]1O | – | 5.62 | 114% | 7.33 | 4800 nM | 2 | 8200 nM
CC(Cc1ccccc1)Nc1ccnc2c1ncn2C1O[C@H](CO)[C@@H](O)[C@H]1O (stereo partly drawn) | – | 6.20 | 116% | 8.11 | 6600 nM | 10.5 | 4900 nM
OC[C@H]1O[C@@H](n2cnc3c(NC4CCCC4)cc(Cl)nc32)[C@H](O)[C@@H]1O | – | 6.44 | 107% | 8.80 | 28000 nM | 78 | 13200 nM
OC[C@H]1O[C@@H](n2cnc3c(NC4CCCC4)ncnc32)[C@H](O)[C@@H]1O [N6-CYCLOPENTYLADENOSINE] | – | – | – | – | – | – | 2000 nM
OC[C@H]1O[C@@H](n2cnc3c(NC4CCCCC4)ccnc32)[C@H](O)[C@@H]1O | – | 5.80 | 109% | 7.80 | 20000 nM | 12.4 | 6800 nM
Nc1ccnc2c1ncn2[C@@H]1O[C@H](CO)[C@@H](O)[C@H]1O | 4.18 | 5.17 | 97% | 6.94 | 18000 nM | 2.7 | 2900 nM
CCNC(=O)[C@H]1O[C@@H](n2cnc3c(N)ccnc32)[C@H](O)[C@@H]1O | 5.22 | 5.82 | 104% | 7.29 | 2800 nM | 1.9 | 580 nM
Nc1ncnc2c1ncn2[C@@H]1O[C@H](CO)[C@@H](O)[C@H]1O [ADENOSINE] | 5.23 | – | – | – | – | – | –
OC[C@H]1O[C@@H](n2cnc3c(NC4CCCC4)ccnc32)[C@H](O)[C@@H]1O | – | 6.01 | 107% | 8.12 | 26000 nM | 27 | 17600 nM
CC(Cc1ccccc1)Nc1cc(Cl)nc2c1ncn2C1O[C@H](CO)[C@@H](O)[C@H]1O (stereo partly drawn) | – | 6.02 | 108% | 7.74 | 3500 nM | 3.6 | 3700 nM
